How the values were obtained:
[1] = tested on: SCC VII tumor cells; assay: In vitro BNCT survival study, colony formation assay; assay type: cell-based
Description: SCC VII tumor cells were incubated and stabilized in a logarithmic subconfluent growth phase at 36 °C in a 5% carbon dioxide atmosphere in a 10 cm diameter tissue culture dishes (100 mm tissue culture dishes; Corning Glass Works, Corning, NY, USA) containing Eagle’s MEM containing 10% heat-inactivated fetal bovine serum and 2 mM L-glutamine. The U87 delta EGFR glioma cell line, kindly provided by Dr. H. Michiue (Okayama University, Okayama, Japan), which stably expressed the constitutively active EGFRvIII, was used in the colony formation assay. […] The thermal neutron fluence was determined by averaging two gold foils symmetrically attached to the surface of the Teflon tube along the direction of the incidence of the thermal neutrons. The neutron absorbed dose (Gy) was calculated using the flux-to-dose conversion factor [61]. […] Ten days later, the colonies were fixed with 70% ethanol and stained with 5% Giemsa solution for quantitative visualization by the naked eye.

[2] = tested on: U87 delta EGFR glioma cells; assay: as above; assay type: cell-based; conditions: for Survival rate: 20 ppm of 10B in BPA; for Thermal neutron fluence yielding the D37 value: BPA 20 ppm 10B
Description: SCC VII tumor cells were incubated and stabilized in a logarithmic subconfluent growth phase at 36 °C in a 5% carbon dioxide atmosphere in a 10 cm diameter tissue culture dishes (100 mm tissue culture dishes; Corning Glass Works, Corning, NY, USA) containing Eagle’s MEM containing 10% heat-inactivated fetal bovine serum and 2 mM L-glutamine. The U87 delta EGFR glioma cell line, kindly provided by Dr. H. Michiue (Okayama University, Okayama, Japan), which stably expressed the constitutively active EGFRvIII, was used in the colony formation assay. The cells were maintained in Dulbecco’s modified Eagle’s medium (DMEM; FUJIFILM Wako Pure Chemical Corporation, Richmond, VA, USA with 10% fetal bovine serum (FBS), penicillin, and streptomycin at 37 °C in a humidified atmosphere containing 5% CO2. The stock solutions of B1 and B2 were obtained by dissolving 6 mg of them in 1 ml DMSO, respectively. For SCC VII cells, after adding 100 μL of a boron solution, the cells were incubated for boron loading into tumor cells for 5 h. […] The ^10B (0.143 ppm ^10B for 1 (B1) and 0.101 ppm for 2 (B2) in the medium was reconfirmed by PGS (prompt γ spectroscopy) in the SCC VII colony forming assay. After boron loading, the cells were trypsinized and washed three times by PBS, and 5 × 10^3 cells/mL MEM (FCS+) were irradiated with thermal neutrons in column-shaped Teflon tubes (1 × 3 cm). […] The irradiation times were 0, 15, 30 and 45 min. The thermal neutrons flux was 1.8 × 10^9 cm^−2·s^−1. The thermal neutron fluence was determined by averaging two gold foils symmetrically attached to the surface of the Teflon tube along the direction of the incidence of the thermal neutrons. The neutron absorbed dose (Gy) was calculated using the flux-to-dose conversion factor [61]. The chemical composition of the tumors was assumed to be 10.7% hydrogen, 12.1% carbon, 2% nitrogen, 71.4% oxygen, and 3.8% others. The γ-ray dose rate, including secondary γ-rays, was 1.0 × 10^−2 Gy·min^−1, according to a thermoluminescence dosimeter attached to the surface of a Teflon tube containing 1 mL MEM. After thermal neutron exposure, 300 or 900 cells were placed in three Corning 60 mm tissue culture dishes containing 6 mL MEM to examine colony formation. Ten days later, the colonies were fixed with 70% ethanol and stained with 5% Giemsa solution for quantitative visualization by the naked eye.

[3] = tested on: SCC VII tumor cells; assay: Cytotoxicity: IC50, growth inhibition after 3 days of continuous exposure; assay type: cell-based; conditions: 3 days continuous exposure, read-out: IC50 (cell toxicity)
Description: Suspensions of 105 SCC VII cells/200 μL MEM containing 10% FCS (fetal calf serum) were incubated for 3 days in 96-well microplate with various concentrations of 1 and 2 (B1 and B2). After 3 days of exposure, the cell were washed with PBS and fixed with 70% ethanol. The SCC VII cells were stained with 5% Giemsa solution for 15 min. After removing the solution, the cells were dried in air and Giemsa stained cells were uniformized by the addition of 100 μL of alcohol. The optical absorbance at 595 nm was measured by optical densitometer.

[4] = biological target: T1, MMP-2 (Homo sapiens, UniProt P08253); assay: MMP-2 fluorometric inhibitor screening kit assay; conditions: read-out: IC50 MMP-2; triplicate, S.D.
T1 sequence (P08253 110-660): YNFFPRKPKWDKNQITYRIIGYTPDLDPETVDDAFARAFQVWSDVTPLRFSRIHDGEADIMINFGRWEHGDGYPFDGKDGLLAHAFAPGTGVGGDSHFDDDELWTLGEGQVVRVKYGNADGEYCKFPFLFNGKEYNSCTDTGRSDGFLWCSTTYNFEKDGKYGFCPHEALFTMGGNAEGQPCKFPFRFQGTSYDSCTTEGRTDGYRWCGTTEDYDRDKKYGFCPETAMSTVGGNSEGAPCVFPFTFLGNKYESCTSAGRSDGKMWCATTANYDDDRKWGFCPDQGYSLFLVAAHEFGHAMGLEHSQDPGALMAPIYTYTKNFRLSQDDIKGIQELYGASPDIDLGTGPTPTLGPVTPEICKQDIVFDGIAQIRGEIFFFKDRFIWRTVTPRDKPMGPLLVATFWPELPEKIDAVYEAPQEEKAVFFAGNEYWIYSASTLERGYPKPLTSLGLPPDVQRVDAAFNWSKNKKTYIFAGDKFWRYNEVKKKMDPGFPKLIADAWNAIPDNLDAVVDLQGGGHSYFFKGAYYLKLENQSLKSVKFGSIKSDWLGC
Description: (§1) MMP-2, MMP-9, and MMP-13 were assayed for inhibition using the respective abcam: ab139447, ab139449, and ab139451 Inhibitor Screening Kits. The supplied kits were adaptable to a microplate reader protocol designed for observing a fluorometric change associated with the cleavage of substrate analog at 37 °C. Briefly, each assay or control included a combined volume of 100 µL. […] The enzymes were then diluted in the assay buffer and 20 µL of each was added to give an assay concentrations of 0.042 nM (MMP-2), 1.9 nM (MMP-9), and 1.86 nM (MMP-13). […] The reaction was excited at 328 nm and emission detected at 420 nm. Fluorescence was measured every 60 s for a total of 960 s.
(§2) For each assay, data were truncated at 1000 s and offsets were applied to bring the initial fluorescence of each assay to zero. Replicate data for assays of individual inhibitor concentrations were plotted in KaleidaGraph (Synergy Software) for comparison and obvious outliers were culled from the analysis. The remaining data were averaged to yield one trace for each inhibitor concentration. The average data were combined into a dataset that included all assayed inhibitor concentrations for each MMP paralog. […]
(§3) The error was calculated by propagating the error for ratios of rate constants derived from fitting.

[5] = biological target: MMP-9 (Homo sapiens, UniProt P14780); assay: MMP-9 fluorometric inhibitor screening kit assay; conditions: read-out: IC50 MMP-9; triplicate, S.D.
MMP-9, sequence (P14780 94-707): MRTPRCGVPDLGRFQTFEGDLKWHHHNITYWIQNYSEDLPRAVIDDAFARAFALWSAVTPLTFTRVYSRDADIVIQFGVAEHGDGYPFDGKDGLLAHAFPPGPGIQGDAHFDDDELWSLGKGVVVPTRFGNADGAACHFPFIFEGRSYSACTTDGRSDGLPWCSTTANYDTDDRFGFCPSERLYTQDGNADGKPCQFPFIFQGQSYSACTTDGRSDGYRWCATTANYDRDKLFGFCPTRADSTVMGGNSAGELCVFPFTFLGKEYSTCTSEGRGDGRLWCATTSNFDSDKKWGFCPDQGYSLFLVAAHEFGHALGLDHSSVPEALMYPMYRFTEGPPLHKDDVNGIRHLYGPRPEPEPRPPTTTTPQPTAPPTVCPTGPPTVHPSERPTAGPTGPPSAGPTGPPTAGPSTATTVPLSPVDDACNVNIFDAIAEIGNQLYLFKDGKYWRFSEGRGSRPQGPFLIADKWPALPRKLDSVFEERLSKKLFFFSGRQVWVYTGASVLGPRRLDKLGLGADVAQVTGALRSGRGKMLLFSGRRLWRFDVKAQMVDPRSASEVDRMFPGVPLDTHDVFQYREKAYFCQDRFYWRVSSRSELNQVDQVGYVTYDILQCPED
Description: as §1, §2, §3

**Q.** For `N[C@@H](Cc1ccc(B(O)O)cc1)C(=O)O` [BPA, L-boronophenylalanine, reference compound], which “D37 absorbed dose (dose used to inhibit 63% colony formation)” value ([1]; SCC VII after in vitro BNCT, pre-incubation 0.143 ppm 10B (1), 0.101 ppm 10B (2)) is on record?
**A.** Its value is 0.82 Gy.

**Q.** What about the “Thermal neutron fluence yielding the D37 value” ([1]; SCC VII, BPA 20 ppm 10B, 4 0.48 ppm 10B (Figure 9)) of the same compound?
**A.** The value was 6.0 × 10^11.

**Q.** What about the Survival rate ([2]; thermal neutron fluence 2.7 × 10^12 cm^−2) of the same compound?
**A.** The Survival rate was 6.2 ± 1.4%.

**Q.** And the Survival rate ([2]; thermal neutron fluence […] 10^12 cm^−2)?
**A.** Its Survival rate is 24.2 ± 7.7%.

**Q.** What about the “Thermal neutron fluence yielding the D37 value” ([2]; U87 MG delta EGFR, 4 0.48 ppm 10B (Figure 8)) of the same compound?
**A.** The value was 1.2 × 10^12.

**Q.** And the “Thermal neutron fluence yielding the D37 value” ([2]; U87 delta EGFR, 2 (B2) 0.7 ppm 10B (Figure 7))?
**A.** Its value is 1.0 × 10^12.

**Q.** And the IC50 [3]?
**A.** Its IC50 is 25500 µM.

**Q.** What does the source list for `COc1ccc(S(=O)(=O)N(CC(=O)NO)CC(C)C)cc1` [NNGH, N-isobutyl-N-(4-methoxyphenylsulfonyl)glycyl hydroxamic acid, reference compound]?
**A.** IC50 [4]: 0.0085 ± 0.0011 µM; IC50 [5]: 0.0028 ± 1.4e-05 µM

Source: publication PMC10139035, “Carborane-Containing Hydroxamate MMP Ligands for the Treatment of Tumors Using Boron Neutron Capture Therapy (BNCT): Efficacy without Tumor Cell Entry” (International Journal of Molecular Sciences, 2023)
